From patent US20240316079A1, “USE OF AKR1C3-ACTIVATED COMPOUND” (OBI PHARMA, INC., priority 2021, published 2024) come the findings set out here.

For test [1], the system named is H460 cells. Briefly: Cytotoxicity in H460 cells in the absence or presence of AKR1C3 inhibitor 3021. The following applies: Homo sapiens, NCI-H460, 2 h, read-out: IC50 (cytotoxicity).
Procedure: Exponentially growing cells were seeded 24 hours before the addition of test compounds. After addition of test compounds, the plates were incubated for the indicated hours at 37° C. in a standard tissue culture incubator. At the end of the experiment, the viable cells were detected using either a CellTiter Glo (CTG) assay kit or AlamarBlue^(28,29). […] For 3021 experiments, cells were pretreated with 3 μM of 3021 for 2 h prior to compound treatment under air. IC50 was calculated as described above.
In test [2] the test system is H460 cells. Briefly: Comet assay for DNA cross-linking. Type of test: cell-based, human. As to the method:
After seeding cells for 24 hours, the test articles were added at the indicated concentrations and incubated for 2 hours. Cells were washed twice to remove compound completely. 20 μmol/L of bleomycin was added and incubated for 1 hour under air to induce DNA strand breaks following 2 h cell resting. After washing twice with PBS, comet assay was conducted using a single-cell electrophoresis system from Trevigen (Gaithersburg, MD). The data were analyzed using Comet Assay IV software from Perceptive Instruments (29).
To evaluate whether 3424 cross-linked DNA, a direct biochemical assay for DNA cross-linking, the single-cell electrophoresis-based comet assay was employed using H460 cells. In this assay, the racemic mixture, 2870, was used. […] Bleomycin was used to induce DNA strand breaks which was evident by increased tail moment to 35. 2870-induced DNA cross-linking was tested using three concentrations under identical conditions that were used for bleomycin. Compound 2870-induced concentration-dependent DNA-crosslinking was evident by a decreased tail moment from 36 to 1.6.

For the next test, the target named is T1, recombinant human AKR1C3 (Homo sapiens, UniProt P42330).
T1 construct: purchased Abcam (Cambridge, MA)
T1 sequence (P42330 1-323): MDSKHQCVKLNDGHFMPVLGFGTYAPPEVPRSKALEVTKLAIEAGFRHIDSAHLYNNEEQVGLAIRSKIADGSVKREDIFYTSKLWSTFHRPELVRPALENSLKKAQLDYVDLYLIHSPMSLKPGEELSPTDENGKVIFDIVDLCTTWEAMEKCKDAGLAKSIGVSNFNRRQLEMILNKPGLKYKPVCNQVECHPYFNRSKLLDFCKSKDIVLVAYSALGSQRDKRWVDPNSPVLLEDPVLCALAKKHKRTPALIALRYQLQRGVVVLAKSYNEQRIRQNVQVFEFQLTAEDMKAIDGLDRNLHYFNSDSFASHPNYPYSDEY
Briefly: Kinetic analysis of AKR1C3 towards various substrates (NADPH absorbance 340 nm). To be noted: substrate of AKR1C3, 25° C., triplicate. Type of test: biochemical. Here is the method:
The reaction was incubated at 25° C. and terminated at various time points by adding acetonitrile and methanol (at a ratio of 9 to 1) and subjected for LC-MS/MS analysis. For enzyme kinetic analysis, the activity was determined with a SpectraMax M2^e spectrophotometer (Molecular Devices, LLC, San Jose, CA) by measuring the decrease in absorbance of the NADPH at 340 nm (E=6270 M^−1 cm^−1). After the initiation of the reaction by addition of substrates, the reactions were monitored at 30 s intervals at 25° C. The non-substrate reaction rate was also monitored as background and its slope was used to determine the initial velocity of the reaction. The kinetic data reported were the average of triplicate measurements.

The test system of a further test is SNU-16 xenograft. The following applies: 5-FU 30 mg/kg IP twice a week. As to the method:
(§1) Death and observed clinical signs were recorded on the basis of the numbers of animals within each subset.

Test [3] concerns HepG2 orthotopic xenograft. Type of test: in vivo, mice. The following applies: sorafenib 30 mg/kg orally, QD×5×7 cycles; no statistical significance. Here is the method: (§2) In vivo anti-tumor activity of 3424 was evaluated using GFP-expressing cancer cell lines in an orthotopic liver cancer model (HepG2) and a subcutaneous lung cancer model (H460) CDX models at AntiCancer, Inc (Beijing, China). Female athymic nude mice (6 weeks; BALB/c-nu, Beijing HFK Bioscience Co., Ltd., Beijing, China) were used in the studies. Each mouse was implanted with a HepG2-GFP tumor chunk (˜1 mm^3 in diameter) in the right lobe of the liver for tumor development or inoculated subcutaneously with H460-GFP tumor chunk (˜1 mm^3 in diameter). About 3-10 days later, whole mouse body scan was performed using FluorVivo Model-100 fluorescence imager (INDEC Biosystems, Inc., Los Altos, CA). Mice with similar fluorescent areas were selected and randomly grouped. Both cell lines expressed high level of AKR1C3. Prodrug 3424 was dosed intravenously (IV) at 1.25, 2.5 mg/kg or 5 mg/kg Q7D×2 for the HepG2 orthotopic model or at 0.625, 1.25 or 2.5 mg/kg for the H460 xenograft model with a regimen of Q7D×2, 1 week off, then Q7D×2 again. Sorafenib was used as the positive control in the HepG2 model and was dosed orally at 30 mg/kg with a regimen of QD×5×7 cycles. Taxol was used as the positive control in the H460 model and was administered at 15 mg/kg IV with a regimen of BIW×4. During the experiments, mice were observed daily and body weight was measured twice a week. Tumor burden was monitored twice a week either by caliper measurement (H460) or FluorVivo fluorescence imager (H460-GFP and HepG2-GFP).

A further test has as its system A498 xenograft. Here is the method:
as §1

Test [4] deals with H460 subcutaneous xenograft. Type of test: in vivo, mice. To be noted: paclitaxel 15 mg/kg IV BIW×4. As to the method:
as §2

Read-outs that look alike come from different tables or passages of the source.

Turning to `CC(OP(=O)(N1CC1)N1CC1)c1ccc([N+](=O)[O-])c(Oc2cccc(C(=O)N(C)C)c2)c1` (racemic) [Compound 2870, 1-(3-(3-N,N-dimethylaminocarbonyl)phenoxyl-4-mtrophenyl)-1-ethyl-N,N′-bis(ethylene)phosphoramidate], in the test with H460 cells [1], the half-maximal inhibitory concentration (IC50) was 4 nM. Besides, the tail moment in the test on H460 cells [2] (2870 at three concentrations, 2 hours, then bleomycin, decreased from 36, concentration-dependent DNA cross-linking) amounted to 1.6.

With `C[C@]12CCC(=O)C=C1CC[C@@H]1[C@@H]2CC[C@]2(C)C(=O)CC[C@@H]12` [4-Androstenedione, 4-androstenedione, reference compound], at recombinant human AKR1C3, the Kcat amounted to 0.0012 ± 0.00017 s⁻¹ and the Km was determined as 1.98 ± 0.43 µM.

`C[C@]12CCC(=O)C[C@@H]1CC[C@@H]1[C@@H]2CC[C@]2(C)[C@@H](O)CC[C@@H]12` [5^α-DHT, dihydrotestosterone, reference compound]: at recombinant human AKR1C3, the Kcat came out at 0.002 ± 0 s⁻¹ and the Km is 10.2 ± 0.62 µM.

In the case of `O=c1[nH]cc(F)c(=O)[nH]1` [Compound 5-FU, 5-fluorouracil, reference compound], in the test on SNU-16 xenograft, the anti-tumor activity entry is “no anti-tumor activity”.

As for `C[C@@H](OP(=O)(N1CC1)N1CC1)c1ccc([N+](=O)[O-])c(Oc2cccc(C(=O)N(C)C)c2)c1` [Compound 3423, (R)-1-(3-(3-N,N-dimethylaminocarbonyl)phenoxyl-4-mtrophenyl)-1-ethyl-N,N′-bis(ethylene)phosphoramidate], the half-inhibitory concentration (IC50) with H460 cells [1] was determined as 5 nM. Moreover, the Kcat on recombinant human AKR1C3 stood at 0.012 ± 0.00067 s⁻¹. For the same compound, at recombinant human AKR1C3 (read-out: Km), the Michaelis constant (Km) came to 12.9 ± 1.71 µM.

Consider `CNC(=O)c1cc(Oc2ccc(NC(=O)Nc3ccc(Cl)c(C(F)(F)F)c3)cc2)ccn1` [Sorafenib, reference compound], for which the “tumor growth reduction (TGI)” value in test [3] is recorded as 52.1%.

On to `Nc1ccn([C@@H]2O[C@H](CO)[C@@H](O)C2(F)F)c(=O)n1` [gemcitabine, reference compound], for which, in the test with A498 xenograft (gemcitabine 80 mg/kg weekly IP for 4 doses), the TGI is 19%.

Take `CC(=O)O[C@H]1C(=O)[C@@]2(C)[C@H]([C@H](OC(=O)c3ccccc3)[C@]3(O)C[C@H](OC(=O)[C@H](O)[C@@H](NC(=O)c4ccccc4)c4ccccc4)C(C)=C1C3(C)C)[C@]1(OC(C)=O)CO[C@@H]1C[C@@H]2O` [paclitaxel, reference compound]: the TGI in test [4] is reported as 64%.

`CCN(CC)CCNC(=O)c1c(C)[nH]c(/C=C2\C(=O)Nc3ccc(F)cc32)c1C` [sunitinib, reference compound] yielded a tumour growth inhibition (TGI) in the test with A498 xenograft (sunitinib 25 mg/kg daily oral gavage) of 52%.

For the compound bleomycin [reference compound], in the test on H460 cells [2] (bleomycin used to induce DNA strand breaks (20 μmol/L, 1 hour)), the tail moment was 35.

A word on the IC50: it is the concentration that gives 50% inhibition. A word on the Km: it is the substrate concentration at which the rate is half of its maximum. In general, TGI refers to how far tumour growth fell short of that in controls.
